Earlier results as cited in US10751339B2, “Substituted aminopyrimidine compounds and methods of use” (SUNSHINE LAKE PHARMA CO., LTD., priority 2018, dated 2020).

Experiments:
[1] = system: mouse model of rheumatoid arthritis; conditions: in vivo; cited from earlier work
[2] = system: model of systemic lupus erythematosis; conditions: in vivo; cited from earlier work

O=C1NC(=O)/C(=C\c2ccc3nccnc3c2)S1 [AS 605240]
efficacy in a mouse model of rheumatoid arthritis [1]: efficacious
effect on onset of disease in a model of systemic lupus erythematosis [2]: delay onset of disease
